Test results as given in ChEMBL document CHEMBL1201862, “PubChem BioAssay data set” (2004).
Each block holds one compound with its values, some of them ahead of it. Activity calls are given as the source filed them.

What was measured:
[1] = target: Cytochrome P450 2C19 (Homo sapiens, UniProt P33261); test: Cytochrome panel assay with activity outcomes. Panel member name: p450-cyp2c19 Compounds with AC50 equal or less than 10 uM are considered active; assay type: functional; settings: read-out: AC50
Chain of Cytochrome P450 2C19 (P33261 whole entry): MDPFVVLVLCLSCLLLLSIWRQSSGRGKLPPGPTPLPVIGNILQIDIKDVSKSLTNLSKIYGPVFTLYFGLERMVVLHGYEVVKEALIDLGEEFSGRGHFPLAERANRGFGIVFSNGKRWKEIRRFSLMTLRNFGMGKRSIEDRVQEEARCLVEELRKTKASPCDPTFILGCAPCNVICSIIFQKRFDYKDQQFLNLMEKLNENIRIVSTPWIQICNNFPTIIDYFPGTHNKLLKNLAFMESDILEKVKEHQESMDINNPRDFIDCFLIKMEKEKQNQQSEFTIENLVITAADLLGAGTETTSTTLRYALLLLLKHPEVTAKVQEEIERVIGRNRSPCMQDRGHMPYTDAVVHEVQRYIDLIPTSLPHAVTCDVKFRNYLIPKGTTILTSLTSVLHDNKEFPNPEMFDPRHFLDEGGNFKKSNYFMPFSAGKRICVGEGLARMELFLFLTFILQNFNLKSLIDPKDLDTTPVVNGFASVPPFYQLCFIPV

[2] = target: Cytochrome P450 2C9 (Homo sapiens, UniProt P11712)
Chain of Cytochrome P450 2C9 (P11712 whole entry): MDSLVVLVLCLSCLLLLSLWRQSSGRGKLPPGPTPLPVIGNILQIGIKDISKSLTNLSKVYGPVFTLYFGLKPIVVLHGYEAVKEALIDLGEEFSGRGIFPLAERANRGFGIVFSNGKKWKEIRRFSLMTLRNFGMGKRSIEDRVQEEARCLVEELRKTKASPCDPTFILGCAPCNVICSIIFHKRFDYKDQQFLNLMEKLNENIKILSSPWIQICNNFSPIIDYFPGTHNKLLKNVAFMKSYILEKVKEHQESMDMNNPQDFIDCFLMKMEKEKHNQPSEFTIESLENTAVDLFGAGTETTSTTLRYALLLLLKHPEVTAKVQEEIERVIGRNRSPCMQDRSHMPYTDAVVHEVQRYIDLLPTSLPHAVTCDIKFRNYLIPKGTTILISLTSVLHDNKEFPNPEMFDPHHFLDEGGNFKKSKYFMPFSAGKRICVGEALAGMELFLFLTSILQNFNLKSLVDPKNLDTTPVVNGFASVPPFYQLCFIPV

[3] = target: Cytochrome P450 3A4 (Homo sapiens, UniProt P08684);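 note: CYP3A4 tested as one member of a cytochrome P450 panel screen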
Chain of Cytochrome P450 3A4 (P08684 whole entry): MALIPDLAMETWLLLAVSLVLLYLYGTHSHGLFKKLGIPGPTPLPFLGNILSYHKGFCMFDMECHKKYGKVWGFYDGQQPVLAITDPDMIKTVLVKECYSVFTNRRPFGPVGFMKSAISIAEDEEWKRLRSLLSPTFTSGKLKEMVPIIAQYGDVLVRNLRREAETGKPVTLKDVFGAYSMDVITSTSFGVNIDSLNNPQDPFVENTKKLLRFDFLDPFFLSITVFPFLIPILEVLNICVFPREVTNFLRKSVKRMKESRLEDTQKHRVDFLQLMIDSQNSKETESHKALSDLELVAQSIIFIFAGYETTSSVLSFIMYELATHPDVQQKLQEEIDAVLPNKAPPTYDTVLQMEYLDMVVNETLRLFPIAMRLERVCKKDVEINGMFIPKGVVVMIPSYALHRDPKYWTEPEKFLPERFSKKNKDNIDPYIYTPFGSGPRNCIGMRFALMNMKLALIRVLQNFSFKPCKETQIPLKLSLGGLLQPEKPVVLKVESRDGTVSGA

[4] = target: T1, Ubiquitin-conjugating enzyme E2 N (Homo sapiens, UniProt P61088); assay type: functional;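 note: Dose-response confirmation in a TR-FRET assay detecting UBC13-driven polyubiquitin chain formation, inhibition measured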
T1 sequence (P61088 whole entry): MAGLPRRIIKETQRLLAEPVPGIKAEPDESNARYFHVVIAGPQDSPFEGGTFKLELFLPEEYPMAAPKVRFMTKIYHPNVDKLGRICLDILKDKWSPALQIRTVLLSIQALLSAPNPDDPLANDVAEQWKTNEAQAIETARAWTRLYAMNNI

[5] = target: T2, Cysteine protease ATG4B (Homo sapiens, UniProt Q9Y4P1); assay type: functional;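 note: Fluorescence-based dose-response confirmation assay measuring inhibition of ATG4B activity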
T2 sequence (Q9Y4P1 whole entry): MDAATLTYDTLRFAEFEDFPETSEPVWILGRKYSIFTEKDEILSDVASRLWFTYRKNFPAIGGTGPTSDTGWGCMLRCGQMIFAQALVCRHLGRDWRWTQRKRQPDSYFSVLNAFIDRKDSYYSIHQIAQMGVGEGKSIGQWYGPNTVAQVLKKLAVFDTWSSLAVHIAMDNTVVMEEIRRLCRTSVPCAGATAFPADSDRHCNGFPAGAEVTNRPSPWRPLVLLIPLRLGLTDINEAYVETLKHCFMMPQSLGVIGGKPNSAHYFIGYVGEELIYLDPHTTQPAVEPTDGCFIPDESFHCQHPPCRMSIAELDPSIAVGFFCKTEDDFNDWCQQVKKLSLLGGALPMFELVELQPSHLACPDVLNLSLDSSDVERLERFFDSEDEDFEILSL

[6] = target: Phospholipase A2 (Homo sapiens, UniProt P04054); assay type: functional;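 note: confirmatory dose-response counterscreen on phospholipase A2, testing hits that came from an ultra-high-throughput screen for ATG4B inhibitors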
Chain of Phospholipase A2 (P04054 whole entry): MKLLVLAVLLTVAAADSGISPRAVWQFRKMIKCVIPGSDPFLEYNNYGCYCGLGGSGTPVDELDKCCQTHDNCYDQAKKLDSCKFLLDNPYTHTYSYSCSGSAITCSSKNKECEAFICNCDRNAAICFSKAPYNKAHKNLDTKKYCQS

[7] = test system: HEK293; test: cells; assay type: functional, cell-based; settings: Homo sapiens
[8] = target: T3, Nuclear receptor subfamily 0 group B member 1 (Homo sapiens, UniProt P51843); test: Luminescence-based cell-based high throughput dose response assay for inhibitors of the orphan nuclear receptor subfamily 0, group B, member 1 (DAX1; NR0B1). [Related pubchem assays (depositor defined):AID504766, AID504790]; assay type: functional
T3 sequence (P51843 whole entry): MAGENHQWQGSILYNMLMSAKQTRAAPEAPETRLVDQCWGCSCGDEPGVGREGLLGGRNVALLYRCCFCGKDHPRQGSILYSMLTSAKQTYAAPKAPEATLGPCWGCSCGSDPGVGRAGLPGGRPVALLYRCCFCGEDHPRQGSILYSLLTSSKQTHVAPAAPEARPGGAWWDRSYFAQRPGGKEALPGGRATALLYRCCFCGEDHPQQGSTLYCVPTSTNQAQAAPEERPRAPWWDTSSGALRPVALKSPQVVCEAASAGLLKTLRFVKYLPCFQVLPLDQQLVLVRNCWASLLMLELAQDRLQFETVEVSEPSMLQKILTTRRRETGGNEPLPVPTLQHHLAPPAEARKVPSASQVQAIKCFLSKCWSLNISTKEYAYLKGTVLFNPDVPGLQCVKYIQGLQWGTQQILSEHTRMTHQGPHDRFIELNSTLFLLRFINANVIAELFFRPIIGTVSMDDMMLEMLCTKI

[9] = NIH-3T3 fibroblast cytotoxicity, dose response, cytotoxicity control, cell-based, fluorescence, Alamar Blue, secondary assay (AID 2327); assay type: functional;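 note: NIH-3T3 mouse fibroblasts cultured with fluconazole at 8 µg/mL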
[10] = C. albicans growth with fluconazole, confirmation, fluorescence, retest (AID 2467); assay type: functional, cell-based
[11] = inhibitors of intracellular T. cruzi replication, confirmation, NIH3T3 host cells, beta-gal luminescence (AID 2044); assay type: functional, cell-based;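 note: intracellular parasites grown in NIH/3T3 mouse fibroblasts as host cells; luminescent beta-galactosidase reporter signal from transgenic T. cruzi replicating inside host cells; inhibitors lower the luminescence signal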
[12] = cytotoxicity toward NIH3T3 fibroblasts, dose response, counter-screen, cell-based, ATP luminescence, mouse fibroblasts (AID 2010); assay type: functional;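 note: cells exposed to compound for about 90 hours before reading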
[13] = target: Cytochrome P450 2D6 (Homo sapiens, UniProt P10635);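 note: CYP2D6 member of a cytochrome P450 panel assay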
Chain of Cytochrome P450 2D6 (P10635 whole entry): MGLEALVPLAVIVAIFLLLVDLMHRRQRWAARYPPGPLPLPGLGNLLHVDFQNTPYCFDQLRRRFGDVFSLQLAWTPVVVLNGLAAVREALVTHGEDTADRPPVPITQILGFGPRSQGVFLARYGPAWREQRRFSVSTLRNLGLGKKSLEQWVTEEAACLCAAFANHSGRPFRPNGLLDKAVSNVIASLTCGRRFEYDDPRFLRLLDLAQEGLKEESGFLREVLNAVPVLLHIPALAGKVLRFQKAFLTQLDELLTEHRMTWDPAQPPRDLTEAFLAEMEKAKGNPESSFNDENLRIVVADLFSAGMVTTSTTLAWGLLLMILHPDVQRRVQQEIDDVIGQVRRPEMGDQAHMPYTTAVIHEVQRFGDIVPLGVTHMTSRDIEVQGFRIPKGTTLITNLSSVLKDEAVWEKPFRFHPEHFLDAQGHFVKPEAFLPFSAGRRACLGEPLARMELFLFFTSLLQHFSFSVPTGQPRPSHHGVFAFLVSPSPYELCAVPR

[14] = test system: HEK293; test: NOD1 signaling inhibitors, primary screen, cell-based, luminescence, uHTS (AID 1578); assay type: functional; settings: Homo sapiens
[15] = test system: HEK293; test: cells; assay type: functional, cell-based; settings: Homo sapiens; remark: listed apart in the source
[16] = test system: HEK293; test: cells; assay type: functional, cell-based; settings: Homo sapiens; remark: listed apart in the source
[17] = target: Nucleotide-binding oligomerization domain-containing protein 2 (Homo sapiens, UniProt Q9HC29); test: NOD2 signaling inhibitors, cell-based, luminescence, uHTS, HEK293 (AID 1566); assay type: functional
Chain of Nucleotide-binding oligomerization domain-containing protein 2 (Q9HC29 whole entry, the tested form may be a part): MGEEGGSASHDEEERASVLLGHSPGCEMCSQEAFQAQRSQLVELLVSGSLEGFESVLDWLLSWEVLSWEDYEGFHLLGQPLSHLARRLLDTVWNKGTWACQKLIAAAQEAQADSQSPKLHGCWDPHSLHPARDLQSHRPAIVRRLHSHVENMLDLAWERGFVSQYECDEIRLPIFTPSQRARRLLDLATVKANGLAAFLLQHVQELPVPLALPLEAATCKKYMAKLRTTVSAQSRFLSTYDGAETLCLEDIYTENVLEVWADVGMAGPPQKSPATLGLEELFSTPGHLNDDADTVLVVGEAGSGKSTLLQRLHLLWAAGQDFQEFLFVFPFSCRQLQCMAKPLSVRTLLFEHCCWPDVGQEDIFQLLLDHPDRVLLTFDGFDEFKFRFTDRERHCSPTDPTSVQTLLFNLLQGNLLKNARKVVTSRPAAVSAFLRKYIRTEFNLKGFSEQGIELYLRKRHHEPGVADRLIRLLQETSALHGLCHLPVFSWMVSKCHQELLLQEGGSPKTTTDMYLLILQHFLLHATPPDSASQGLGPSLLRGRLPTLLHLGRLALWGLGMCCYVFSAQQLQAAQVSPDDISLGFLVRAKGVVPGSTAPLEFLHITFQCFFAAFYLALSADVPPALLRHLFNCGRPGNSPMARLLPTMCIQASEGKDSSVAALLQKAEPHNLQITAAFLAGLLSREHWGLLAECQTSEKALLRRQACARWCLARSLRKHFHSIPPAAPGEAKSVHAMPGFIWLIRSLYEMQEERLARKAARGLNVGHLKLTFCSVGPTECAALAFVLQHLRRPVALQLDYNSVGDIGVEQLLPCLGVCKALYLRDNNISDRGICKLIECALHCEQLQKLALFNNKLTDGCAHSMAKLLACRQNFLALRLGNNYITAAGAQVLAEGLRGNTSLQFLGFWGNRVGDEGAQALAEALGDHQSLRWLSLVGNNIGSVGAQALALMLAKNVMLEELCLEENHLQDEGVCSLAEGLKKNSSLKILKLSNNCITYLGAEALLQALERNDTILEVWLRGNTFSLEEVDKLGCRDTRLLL

[18] = test system: HEK293; test: NOD2 signaling inhibitors in MDP-stimulated cells, cell-based, uHTS, luminescence (AID 2001); assay type: functional; settings: Homo sapiens
[19] = test system: HEK293; test: cells; assay type: functional, cell-based; settings: Homo sapiens; remark: listed apart in the source
[20] = target: T4, High affinity choline transporter 1 (Homo sapiens, UniProt Q9GZV3); test: CHT inhibitors, dose response, cell-based, 5-point CRC, membrane potential dye (AID 504840); assay type: functional
T4 sequence (Q9GZV3 whole entry): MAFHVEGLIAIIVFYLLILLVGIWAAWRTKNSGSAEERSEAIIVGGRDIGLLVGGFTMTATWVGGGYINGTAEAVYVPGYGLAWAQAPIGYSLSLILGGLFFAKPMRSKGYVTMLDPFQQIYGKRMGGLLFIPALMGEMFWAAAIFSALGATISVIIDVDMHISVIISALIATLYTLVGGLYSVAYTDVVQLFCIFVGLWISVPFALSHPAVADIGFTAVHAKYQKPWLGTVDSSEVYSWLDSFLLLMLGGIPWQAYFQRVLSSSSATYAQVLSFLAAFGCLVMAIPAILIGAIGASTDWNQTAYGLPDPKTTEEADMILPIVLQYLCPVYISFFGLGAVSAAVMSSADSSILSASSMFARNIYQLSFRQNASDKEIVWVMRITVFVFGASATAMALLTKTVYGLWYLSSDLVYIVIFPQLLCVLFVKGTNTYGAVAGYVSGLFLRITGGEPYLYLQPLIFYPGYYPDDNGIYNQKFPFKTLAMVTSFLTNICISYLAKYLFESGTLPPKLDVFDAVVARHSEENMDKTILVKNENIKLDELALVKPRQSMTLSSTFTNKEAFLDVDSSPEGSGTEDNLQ

[21] = Shn3 3'UTR reporter inhibitors, dose response, cell-based, Clone20 osteoblasts, firefly luciferase, cherry-picked (AID 624132); assay type: functional;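 note: firefly luciferase luminescence from reporter carrying the Shn3 3'UTR in osteoblasts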
[22] = HepG2 cell cytotoxicity, dose response, cytotoxicity control for Shn3 inhibitor project, CellTiter-Glo, cherry-picked (AID 624134); assay type: functional, cell-based
[23] = control 3'UTR Renilla luciferase suppression, dose response, counter-screen for Shn3 inhibitor project, cell-based, Clone20-Shn3RL, cherry-picked (AID 624133); assay type: functional
[24] = target: T5, Cytochrome P450 1A2 (Homo sapiens, UniProt P05177)
T5 sequence (P05177 whole entry): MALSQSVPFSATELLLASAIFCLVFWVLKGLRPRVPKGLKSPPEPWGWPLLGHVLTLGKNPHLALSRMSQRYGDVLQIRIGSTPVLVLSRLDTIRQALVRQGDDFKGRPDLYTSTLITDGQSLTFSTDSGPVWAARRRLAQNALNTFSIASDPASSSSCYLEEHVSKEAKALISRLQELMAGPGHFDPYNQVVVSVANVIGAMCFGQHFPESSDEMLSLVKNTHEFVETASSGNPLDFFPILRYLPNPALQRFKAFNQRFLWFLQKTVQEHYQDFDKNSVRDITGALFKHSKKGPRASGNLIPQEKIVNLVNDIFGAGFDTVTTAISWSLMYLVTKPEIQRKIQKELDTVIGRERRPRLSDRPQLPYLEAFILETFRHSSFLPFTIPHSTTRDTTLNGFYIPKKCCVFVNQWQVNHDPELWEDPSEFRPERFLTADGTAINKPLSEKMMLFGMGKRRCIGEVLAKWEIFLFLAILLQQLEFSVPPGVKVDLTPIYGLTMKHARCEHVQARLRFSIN

- AC50 [1]: 25.1 µM (inconclusive)
- AC50 [2]: 25.1 µM (inconclusive)
- AC50 [3]: inconclusive
SMILES: CCOC(=O)c1c(-c2ccccc2)nc2ccccn12

- IC50 [4]: > 20 µM (inactive)
- IC50 [5]: 12.2 µM (active)
- IC50 [6]: 9.31 µM (active)
SMILES: CCCCn1c(SCC(=O)Nc2cc(C)n[nH]2)nc2ccsc2c1=O

SMILES: CC1=CC(c2ccccc2)n2nnnc2N1 (stereo unspecified)
- IC50 [7]: > 67.6 µM (inactive)
- IC50 [8]: > 67.6 µM (inactive)

- IC50 [5]: 11.5 µM (active)
- IC50 [6]: 7.65 µM (active)
SMILES: O=C(c1ccccc1)c1cnc(Nc2ccccc2Cl)s1

- IC50 [5]: 18.3 µM (active)
- IC50 [6]: 13.4 µM (active)
SMILES: COc1ccc(-c2[nH]nc3c2C(c2ccc(OC(=O)N4CCOCC4)cc2)C(C#N)=C(N)O3)cc1 (stereo unspecified)

SMILES: O=C(c1ccccc1)c1ccc2[nH]c(-c3ccc(NC(=O)c4ccccc4Br)cc3)nc2c1
- EC50 [9]: 2.97 µM (active)
- EC50 [10]: 6.15 µM (active)
- EC50 [11]: 1.59 µM (active)
- EC50 [12]: 7.33 µM (active)
- AC50 [13]: 14.1 µM (inconclusive)
- AC50 [3]: inconclusive

SMILES: COc1ccc(-c2nc(CN3CCN(c4ncnc5ccccc45)CC3)c(C)o2)c(OC)c1
- EC50 [14]: 5.23 µM (active)
- IC50 [15]: 6.96 µM (active)
- IC50 [16]: 13.7 µM (active)
- EC50 [17]: 5.52 µM (active)
- IC50 [18]: 6.38 µM (active)
- IC50 [19]: > 20 µM (inactive)
- IC50 [20]: 16.8 µM (active)
- AC50 [21]: 6.38 µM (active)
- AC50 [22]: > 70 µM (inactive)
- AC50 [23]: 5.24 µM (active)

SMILES: O=C(Nc1ccccc1)N1CC2(CCN(C(=O)Oc3ccccc3)CC2)C1
- AC50 [24]: 20 µM (inconclusive)
- AC50 [3]: inconclusive

SMILES: C[C@@H]1CN(Cc2nc(-c3cccs3)no2)C[C@H](C)O1
- IC50 [7]: > 67.5 µM (inactive)
- IC50 [8]: > 67.5 µM (inactive)

- AC50 [24]: 25.1 µM (inconclusive)
- AC50 [2]: 25.1 µM (inconclusive)
- AC50 [3]: inconclusive
SMILES: O=C(Oc1ccccc1)N1CCC2(CC1)CN(c1ncccn1)C2

SMILES: CN(NC1OC(=O)c2ccccc21)c1ccccc1[N+](=O)[O-] (stereo unspecified)
- IC50 [7]: > 67.5 µM (inactive)
- IC50 [8]: > 67.5 µM (inactive)

SMILES: COC(=O)c1cc(/N=C/c2c(O)oc3ccccc3c2=O)cc(C(=O)OC)c1
- IC50 [7]: > 67.5 µM (inactive)
- IC50 [8]: > 67.5 µM (inactive)

- IC50 [5]: 17.4 µM (active)
- IC50 [6]: 7.99 µM (active)
SMILES: Cc1c(C)c(C)c(CO/N=C/c2cccs2)c(C)c1C
